Legend:
[1] = test system: Porcine atria myofibrils (atrial myosin ATPase); assay: Myofibril ATPase assay, porcine atria myofibrils; assay type: biochemical; conditions: porcine atria myofibrils
Outline: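 Atrial myofibril ATPase measured by NADH-coupled absorbance at 340 nm; vehicle-normalized slopes fitted to give Y75 or Y125 values.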

[2] = test system: Rabbit Psoas myofibrils (skeletal myosin ATPase); assay: Myofibril ATPase assay, rabbit psoas (skeletal) myofibrils; assay type: biochemical; conditions: rabbit psoas myofibrils
Outline: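 Values derive from concentration–response fits of NADH consumption rates at 340 nm, normalized to vehicle-only wells, as Y75 or Y125. Myofibril ATP turnover was linked to NADH via PK/LDH in Ca/EGTA-buffered PIPES, pH 7.0, and read over 75 min.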

[3] = molecular target: T1, Porcine ventricle myofibrils (ventricular myosin ATPase) (Sus scrofa, UniProt P79293); assay: Myofibril ATPase assay, porcine ventricle myofibrils; assay type: biochemical, porcine (Yucatan minipigs); conditions: porcine ventricle myofibrils
T1 construct: Myofibrils from porcine cardiac muscle was isolated from the left ventricle of Yucatan minipigs; tissue Exemplar Genetics; host or cells: left ventricle of Yucatan minipigs, myofibrils prepared in house
T1 sequence (P79293 whole entry): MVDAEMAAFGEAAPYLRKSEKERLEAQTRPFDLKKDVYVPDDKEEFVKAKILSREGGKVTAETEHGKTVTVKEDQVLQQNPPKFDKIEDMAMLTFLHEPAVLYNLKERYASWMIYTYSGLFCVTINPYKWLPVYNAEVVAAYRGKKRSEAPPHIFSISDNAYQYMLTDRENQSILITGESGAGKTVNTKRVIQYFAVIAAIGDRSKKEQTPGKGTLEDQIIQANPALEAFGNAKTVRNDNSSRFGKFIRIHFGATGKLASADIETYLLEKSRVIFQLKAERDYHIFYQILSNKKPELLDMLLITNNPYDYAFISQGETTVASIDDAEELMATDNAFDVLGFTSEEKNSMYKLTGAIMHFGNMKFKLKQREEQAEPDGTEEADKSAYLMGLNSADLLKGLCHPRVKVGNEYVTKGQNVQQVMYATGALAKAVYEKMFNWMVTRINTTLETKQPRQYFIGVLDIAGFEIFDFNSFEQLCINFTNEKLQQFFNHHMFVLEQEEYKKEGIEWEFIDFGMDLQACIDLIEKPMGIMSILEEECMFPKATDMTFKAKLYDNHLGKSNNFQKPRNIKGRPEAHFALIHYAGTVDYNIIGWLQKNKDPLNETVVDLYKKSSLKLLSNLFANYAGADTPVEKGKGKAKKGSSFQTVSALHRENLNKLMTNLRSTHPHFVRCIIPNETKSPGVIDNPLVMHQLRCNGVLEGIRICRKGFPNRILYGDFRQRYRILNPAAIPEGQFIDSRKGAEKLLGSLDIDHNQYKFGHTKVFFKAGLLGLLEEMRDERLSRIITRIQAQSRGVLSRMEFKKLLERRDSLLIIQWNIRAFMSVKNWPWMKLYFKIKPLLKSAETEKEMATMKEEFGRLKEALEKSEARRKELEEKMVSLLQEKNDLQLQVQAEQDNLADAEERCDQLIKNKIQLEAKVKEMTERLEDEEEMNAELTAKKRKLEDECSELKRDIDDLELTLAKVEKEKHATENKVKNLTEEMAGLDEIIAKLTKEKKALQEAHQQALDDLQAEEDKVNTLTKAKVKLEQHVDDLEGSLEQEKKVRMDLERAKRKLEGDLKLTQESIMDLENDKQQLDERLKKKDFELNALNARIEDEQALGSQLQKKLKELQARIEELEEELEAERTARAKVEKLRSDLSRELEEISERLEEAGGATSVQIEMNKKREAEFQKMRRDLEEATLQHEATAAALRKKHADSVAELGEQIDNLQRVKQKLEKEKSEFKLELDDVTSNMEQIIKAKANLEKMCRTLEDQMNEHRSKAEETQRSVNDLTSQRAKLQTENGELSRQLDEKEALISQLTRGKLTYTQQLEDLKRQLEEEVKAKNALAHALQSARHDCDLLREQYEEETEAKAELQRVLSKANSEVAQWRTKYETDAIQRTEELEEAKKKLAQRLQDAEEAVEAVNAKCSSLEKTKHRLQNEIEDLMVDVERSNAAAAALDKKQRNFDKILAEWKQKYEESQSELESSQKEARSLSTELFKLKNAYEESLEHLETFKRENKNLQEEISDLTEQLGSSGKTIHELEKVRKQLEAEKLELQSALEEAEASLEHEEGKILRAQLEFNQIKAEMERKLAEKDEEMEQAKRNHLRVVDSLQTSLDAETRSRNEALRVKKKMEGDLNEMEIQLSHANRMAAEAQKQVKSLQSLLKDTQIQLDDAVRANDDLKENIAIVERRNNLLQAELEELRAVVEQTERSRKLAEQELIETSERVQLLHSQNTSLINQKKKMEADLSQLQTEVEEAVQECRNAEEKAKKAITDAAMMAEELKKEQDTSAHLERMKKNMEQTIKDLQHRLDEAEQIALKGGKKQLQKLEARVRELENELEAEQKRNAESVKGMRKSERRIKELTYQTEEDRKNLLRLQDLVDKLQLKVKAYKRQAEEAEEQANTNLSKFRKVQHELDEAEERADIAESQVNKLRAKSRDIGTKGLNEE
Outline: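 Left-ventricle myofibrils from Yucatan minipigs were tested with a PK/LDH-coupled system, following NADH loss at 340 nm every 1.5-2 min for 75 min. Slopes were normalized to vehicle wells and fit to a 4-parameter logistic model; values are Y75 (25% ATPase reduction) or Y125 concentrations.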

[4] = Y75 value (75% activity relative to no compound)
[5] = ‡ Y125 value, not a Y75 value (125% activity relative to no compound)

Row | Atrial EC25 [1, 4] [µM] | Skeletal EC25 ([2]; Y75 value) [µM] | Ventricular EC25 ([3]; Y75 value) [µM] | Atrial EC25 ([1]; Y75 value (no ‡ mark)) [µM] | Skeletal EC25 ([2]; Y75 value (no ‡ mark)) [µM] | Ventricular EC25 ([3]; Y75 value (no ‡ mark)) [µM] | Compound | other results
1 | 0.06 | 0.02 | 0.10 | – | – | – | Cc1nccc2[nH]c(=O)c(CC(=O)N[C@@H](C)c3ccc(C#N)cc3F)c(F)c12 [compound 149] | –
2 | – | – | – | 0.53 | 0.06 | 4.12 | C[C@H](NC(=O)[C@H](C)c1c(C(F)(F)F)c2c(F)cccc2[nH]c1=O)c1ccc(F)cc1F (single isomer, unassigned) [compound 98] | –
3 | – | – | – | 0.04 | 0.02 | 0.06 | Cc1c(CC(=O)N[C@@H](C)c2ncc(C#N)cc2F)c(=O)[nH]c2ccc(F)c(C3CC3)c12 [compound 28] | –
4 | 100.00 | 12.41 | 100.00 | – | – | – | Cc1nccc2[nH]c(=O)c([C@H](C)C(=O)N[C@@H](C)c3ccc(F)cc3F)cc12 (single isomer, unassigned) [compound 442] | –
5 | 1.55 | 0.36 | 100.00 | – | – | – | Cc1c(CC(=O)N[C@@H](C)c2ccc(F)cc2F)c(=O)[nH]c2ccc(OCC(F)(F)F)nc12 [compound 400] | –
6 | – | – | – | 100.00 | – | – | C[C@H](NC(=O)C1(c2cc3c(F)c(F)ccc3[nH]c2=O)CC1)c1cc(C#N)ccn1 (single isomer, unassigned) [compound 2584] | Skeletal EC25 [2, 5]: 100.00‡ μM; Ventricular EC25 [3, 5]: 100.00‡ μM
7 | – | – | – | – | – | – | CC(NC(=O)C1(c2cc3c(F)c(F)ccc3[nH]c2=O)CC1)c1cccc(C#N)n1 (single isomer, unassigned) [Compound 2570] | Atrial EC25 [1, 5]: 100.00‡ μM; Skeletal EC25 [2, 5]: 26.03‡ μM; Ventricular EC25 [3, 5]: 63.85‡ μM
8 | – | – | – | 100.00 | 1.36 | 4.47 | Cc1c(CC(=O)N[C@@H](C)c2ncc(C#N)cc2F)c(=O)[nH]c2cc(F)c(F)cc12 [compound 1105] | –
9 | 1.53 | 100.00 | 30.78 | – | – | – | Cc1c(CC(=O)N[C@@H](C)c2ccc(C#N)cn2)c(=O)[nH]c2ccc(C(F)(F)F)nc12 [compound 460] | –
10 | – | – | – | 3.40 | 2.33 | 0.31 | C[C@@H](NC(=O)Cc1cc2cc(F)c(F)cc2[nH]c1=O)c1ncc(C#N)cc1F (single isomer, unassigned) [compound 3] | –
11 | – | – | – | 0.49 | 0.15 | 1.45 | Cc1c(CC(=O)N[C@H](C)c2ncc(C#N)cn2)c(=O)[nH]c2ccc(F)c(C#N)c12 (single isomer, unassigned) [compound 2015] | –
12 | – | – | – | 0.12 | 0.54 | 0.75 | C[C@H](NC(=O)[C@H](C)c1cc2c(F)c(F)ccc2[nH]c1=O)c1ncc(C#N)cc1F (relative stereo) [compound 2604, (2R*)-N-[(1S)-1-(5-cyano-3-fluoropyridin-2-yl)ethyl]-2-(5,6-difluoro-2-oxo-1H-quinolin-3-yl)propanamide] | –
13 | 100.00 | 100.00 | 100.00 | – | – | – | Cc1c(CC(=O)N[C@@H](C)c2ccc(S(C)(=O)=O)cc2F)c(=O)[nH]c2ccnc(C#N)c12 (single isomer, unassigned) [compound 215] | –
14 | – | – | – | 0.04 | 0.02 | 0.05 | Cc1c(CC(=O)N[C@H](C)c2ccc(C#N)cc2F)c(=O)[nH]c2ccc(F)c(C(F)(F)F)c12 [compound 37] | –
15 | 2.32 | 0.43 | 20.53 | – | – | – | Cc1nccc2[nH]c(=O)c(CC(=O)N[C@@H](C)c3ccc(F)cc3F)cc12 [compound 445] | –
16 | – | – | – | 100.00 | 100.00 | 100.00 | Cc1cc([C@@H](C)NC(=O)Cc2c(O)c3c(C)c(F)ccc3[nH]c2=O)ncc1F [compound 1116] | –
17 | – | – | – | 1.26 | 3.21 | 18.01 | C[C@@H](NC(=O)Cc1cc2cc(F)ccc2[nH]c1=O)c1ncc(C#N)cn1 (single isomer, unassigned) [compound 2029] | –
18 | – | – | – | 4.45 | – | 100.00 | Cc1c(C(F)(F)C(=O)N[C@@H](C)c2nccc(C#N)n2)c(=O)[nH]c2ccc(F)cc12 (single isomer, unassigned) [compound 2528] | Skeletal EC25 [2, 5]: 93.23‡ μM
19 | – | – | – | 100.00 | 0.03 | 100.00 | Cc1c(CC(=O)N[C@@H](C)c2ccc(C#N)cc2F)c(=O)[nH]c2ccc(F)c(C3CC3)c12 [compound 70] | –
20 | – | – | – | 0.51 | 0.49 | 0.89 | Cc1c(C(F)(F)C(=O)N[C@@H](C)c2cnc(C#N)cn2)c(=O)[nH]c2ccc(F)cc12 (single isomer, unassigned) [compound 2564] | –
21 | 100.00 | 26.68 | 100.00 | – | – | – | Cc1c(CC(=O)N[C@H](CO)c2ncc(F)cc2F)c(=O)[nH]c2ccnc(C#N)c12 [compound 261] | –
22 | 20.63 | 10.76 | 100.00 | – | – | – | Cc1nccc2[nH]c(=O)c([C@H](C)C(=O)N[C@@H](C)c3ccc(F)cc3F)c(C(F)(F)F)c12 (single isomer, unassigned) [compound 413] | –
23 | – | – | – | 0.09 | 0.04 | 0.14 | Cc1c(CC(=O)N[C@H](C)c2ccc(C#N)nn2)c(=O)[nH]c2ccc(F)c(F)c12 [compound 1133] | –
24 | – | – | – | – | – | – | Cc1c(C2(C(=O)N[C@H](C)c3nccc(C#N)n3)CC2)c(=O)[nH]c2ccc(F)c(F)c12 (single isomer, unassigned) [compound 2509] | Atrial EC25 [1, 5]: 100.00‡ μM; Skeletal EC25 [2, 5]: 94.41‡ μM; Ventricular EC25 [3, 5]: 77.92‡ μM
25 | – | – | – | 0.10 | 0.06 | 0.16 | Cc1c(CC(=O)N[C@H](C)c2ncc(C#N)cc2F)c(=O)[nH]c2ccc(F)c(C#N)c12 [compound 31] | –
26 | – | – | – | 25.33 | 30.48 | 47.78 | C[C@@H](NC(=O)Cc1c(C#N)c2cc(F)c(F)cc2[nH]c1=O)c1ccc(C#N)cn1 (single isomer, unassigned) [compound 2047] | –
27 | 100.00 | 0.46 | 100.00 | – | – | – | CCOc1nccc2[nH]c(=O)c([C@@H](C)C(=O)N[C@@H](C)c3ccc(F)cc3F)c(C(F)(F)F)c12 (single isomer, unassigned) [compound 416] | –
28 | 13.10 | 0.62 | 26.29 | – | – | – | Cc1c(CC(=O)N[C@H](C)c2ccc(C#N)cn2)c(=O)[nH]c2ccnc(C#N)c12 [compound 157] | –
29 | – | – | – | 3.07 | 1.34 | 31.20 | C[C@@H](NC(=O)C1(c2cc3c(F)c(F)ccc3[nH]c2=O)CC1)c1ccc(C#N)cn1 (single isomer, unassigned) [compound 4809] | –
30 | – | – | – | 29.94 | 2.83 | 100.00 | COc1ccc2[nH]c(=O)c(CC(=O)N[C@@H](C)c3ccc(F)cc3F)cc2c1C [compound 92] | –
